Reference: article PMC7179167 (Molecules, 2020)
≈ marks a conversion by molar mass, not a printed value.

Experiments:
C. albicans (ATCC 10231) = experiment: Disk diffusion antimicrobial test, C. albicans; format: cell-based, Candida albicans; conditions: Candida albicans, ATCC10231, disk diffusion; yeast; 20 mg per disc (title), concentration 20 µg (footnote)
Method: (§1) The newly synthesized compounds were chosen to be evaluated in vitro towards a variety of pathogenic microorganisms; Gram-positive bacteria: S. aureus (ATCC 6538) and B. subtilis (ATCC 6633); Gram-negative bacteria: P. areuginosa (ATCC 27853) and E. coli (DSMZ 1058); yeast: C. albicans (ATCC 10231) and S. cerevisiae (ATCC 9080) and fungi: A. niger (NRRL A-326) using the disk diffusion method at a single dose of 20 µl. The results are shown in Table 1 as the growth inhibition zone (mm).
(§2) The antimicrobial activity of target compounds were evaluated to be in vitro against a variety of pathogenic microorganisms, namely Staphylococcus aureus (ATCC 6538), Bacillus subtilis (ATCC 6633) (Gram-positive bacteria), Pseudomonas areuginosa (ATCC 27853), Escherichia coli (DSMZ 1058) (Gram-negative bacteria), Candida albicans (ATCC 10231), Saccharomyces cerevisiae (ATCC 9080) (Yeast) and Aspergillus niger (NRRL A-326) (Fungi) using the disk diffusion method at a single dose of 20 µg. The microorganisms were served and obtained from the Microbial Biotechnology Department, National Research Center, Giza, Egypt. Amphotericin, amoxicillin and ciprofloxacin were used as reference drugs (Oxoid™ Disks). The tested compounds 11a–c, 12a–c, 13a–i, 14a–i and 15a,b were dissolved in dimethylsulphoxide (DMSO) at a concentration of 1 mg/mL. Aliquots of 20 μl were soaked on filter paper discs (6 mm) and dried at room temperature under sterilized conditions. The paper discs were placed on inoculated agar plats and then incubated for 24 h at 37 °C for bacterial strains and after 48–72 h incubation at 30 °C for fungi. Both bacterial and yeast strains were grown on nutrient agar medium (g/l): beef extract, 3; peptone, 10 and agar, 20 at pH of 7.2. The fungal strain was grown on Czapek-Dox medium (g/l): sucrose, 30; NaNO3, 3; MgSO4.7H2O, 0.5l; KCl, 0.5; FeSO4, 0.01; K2HPO4, 1 and agar, 20 at pH of 6.0.

B. subtilis (ATCC 6633) = experiment: Disk diffusion antimicrobial test, B. subtilis; format: cell-based, Bacillus subtilis; conditions: Bacillus subtilis, ATCC6633, Gram-positive, 20 mg per disc (title), concentration 20 µg (footnote)
Method: as §1, §2

caspase-3 [1] = experiment: Caspase-3 colorimetric assay in HCT-116 cells; format: cell-based, human; conditions: HCT-116 cells treated at IC50 concentration; control 13.60 ± 2.45; mean ± SD
Excerpt: (§3) The promising antiproliferative results reported for compounds 11a, 11b, 12a, 12b and 13c against cell lines under study have prompted us to investigate the mechanism of cell death induced by these compounds. Apoptosis induction was examined in both MCF-7 and HCT-116 cancer cells by assaying the level of its key protein markers, namely: proapoptotic (p53, Bcl 2-associated X, Bax and caspases3) and antiapoptotic (B-cell lymphoma-2, Bcl-2). MCF-7 and HCT-116 cells undergoing apoptosis was detected by use of the ELISA technique. Protein marker levels were quantified according to Bradford assay.
(§4) Briefly, cells ([…] and HCT) were seeded at a concentration of 1.2–1.8 × 10^3 cells/well in 6-well plates. After 48-h treatment, the collected cells were lysed and centrifuged at 10,000 rpm for 20 min at 4 °C. The protein concentration was measured in the supernatant by Bradford protein assay. Volume containing […] of total protein was incubated with […] of caspase substrate in […] of the reaction buffer at 37 °C for 1 h in the dark. Caspase-3 activity was determined by a microplate reader at 405 nm using a caspase-3 colorimetric assay kit (Abcam) according to the manufacturer’s instructions. In vitro protein level quantitative measurement of apoptotic marker p53, Bcl-2-associated X (Bax) and antiapoptotic marker B-cell lymphoma-2 (Bcl-2) in cell lysate were assessed by Enzyme-Linked Immunosorbent Assay Simple Step ELISA® (ab199080, ab119506 and ab171571; Abcam) according to the manufacturer’s instructions.

[2] = test system: normal skin fibroblast cells (BJ-1); experiment: MTT cytotoxicity assay, normal skin fibroblast BJ-1; format: cell-based; conditions: Homo sapiens, 48 h, read-out: Growth Inhibition (%) BJ-1
Method: (§5) MCF-7 (human breast cancer), HCT-116 (human colon cancer) and HepG2 (human liver cancer) cell lines were obtained from Karolinska Institute, Stockholm, Sweden. All cells were maintained in RPMI 1640 medium. The media were supplemented with 10% heat-inactivated fetal bovine serum plus 1% antibiotic-antimycoticmixture (10,000 U/mL of potassium penicillin, 10,000 μg/mL of streptomycin sulfate, 25 μg/mL of amphotericin B and 1% of L glutamine (Biowest, USA)). BJ-1 of a human skin fibroblast derived from normal foreskin was obtained from ATCC® CRL-2522™ as a frozen ampoule with about 1 × 10^6 cells per 1 ml volume. BJ-1 was maintained in MEM with 2 mM of L-glutamine and Earle’s salts medium.
(§6) Cell viability was studied using the MTT 3-(4,5-dimethylthiazol-2-yl)-2,5-diphenyl-tetrazolium bromide (Bio Basic Canada Inc. Toronto, Canada) assay [33]. The steps were executed in a sterile laminar air flow cabinet biosafety class II level (Baker, SG403INT; Sanford, ME, USA). All incubations were carried out at 37 °C in a 5% CO2 incubator under a humidified atmosphere of 95% (Sheldon, TC2323; Cornelius, OR, USA). Cells were seeded into 96-well microtiter plastic plates at a concentration of (10^4 cells/well) and allowed to adhere for 24 h. The medium was aspirated and then added to the cells with the test compounds 11a–c, 12a–c, 13a–i, 14a–i and 15a,b at a single dose of 100 μg/mL in DMSO. After incubation of the medium for 48 h, 40 μL of MTT salt (2.5 μg/mL) was added to each well and then incubated for an additional 4 h. To stop the reaction and dissolve any formed formazan crystals, 200 μL of 10% sodium dodecyl sulfate (SDS) were added to each well and incubated overnight at 37 °C. The amount of formazan product was measured at 595 nm with a reference wavelength of 690 nm as a background using a microplate reader (Bio-Rad Laboratories, model 3350, California, USA). For the untreated cells (negative control), the medium was added instead of the tested compounds. […] Dimethylsulfoxide (DMSO) was the vehicle used for dissolution of the testing compound, and its final concentration on the cells was less than 0.2%. At the same dilution, the solvent concentration was the same for all drugs and between the control and drug treatments.

[3] = test system: HCT-116 (human colon cancer); experiment: MTT cytotoxicity assay, HCT-116; format: cell-based; conditions: Homo sapiens; for inhibition at 100 µg/mL: HCT-116, 100 µg/ml, 48 h, read-out: Growth Inhibition (%) HCT-116; for IC50: HCT-116, 48 h, 48 h post-treatment
Method: as §5, §6

Bax [4] = experiment: Bax ELISA in HCT-116 cells; format: cell-based, human; conditions: HCT-116 cells treated at IC50 concentration; control 118.54 ± 0.83; mean ± SD
Excerpt: as §3, §4

p53 [5] = experiment: p53 ELISA in HCT-116 cells; format: cell-based, human; conditions: HCT-116 cells treated at IC50 concentration; control 1.68 ± 0.06; mean ± SD
Excerpt: as §3, §4

caspase-3 [6] = experiment: Caspase-3 colorimetric assay in MCF-7 cells; format: cell-based, human; conditions: for Caspase-3 Activity %: MCF-7 cells treated at IC50 concentration, control 10.2 ± 2.84, mean ± SD; for Elevation of active caspase-3 protein levels compared to the control: MCF-7 cells, IC50 concentration
Excerpt: as §3, §4

[7] = test system: MCF-7 (human breast cancer); experiment: MTT cytotoxicity assay, MCF-7; format: cell-based; conditions: for inhibition at 100 µg/mL: MCF7, 100 µg/ml, 48 h, read-out: Growth Inhibition (%) MCF-7; for IC50: MCF7, 48 h post-treatment
Method: as §5, §6

Bax [8] = experiment: Bax ELISA in MCF-7 cells; format: cell-based, human; conditions: MCF-7 cells treated at IC50 concentration; control 39.56 ± 4.56; mean ± SD
Excerpt: as §3, §4

Bcl-2 [9] = experiment: Bcl-2 ELISA in HCT-116 cells; format: cell-based, human; conditions: for Bcl-2 (ng/50 mg Protein): HCT-116 cells treated at IC50 concentration, control 23.56 ± 3.56, mean ± SD; for Reduction of expression level of antiapoptotic protein Bcl-2 compared to the control: HCT-116 cells, IC50 concentration
Excerpt: as §3, §4

[10] = test system: S. cerevisiae (ATCC 9080); experiment: Disk diffusion antimicrobial test, S. cerevisiae; format: cell-based; conditions: Saccharomyces cerevisiae, ATCC9080, yeast, 20 mg per disc (title), concentration 20 µg (footnote)
Method: as §1, §2

[11] = test system: P. aeruginosa (ATCC 27853); experiment: Disk diffusion antimicrobial test, P. aeruginosa; format: cell-based, Pseudomonas areuginosa; conditions: Pseudomonas aeruginosa, ATCC27853, Gram-negative, 20 mg per disc (title), concentration 20 µg (footnote)
Summary of the method: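 Disk diffusion: 6 mm paper discs soaked with 20 μl compound in DMSO at 1 mg/mL, placed on inoculated nutrient agar (pH 7.2). Bacteria incubated 24 h at 37 °C, yeast 48–72 h at 30 °C; growth inhibition zone measured in mm.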

Bcl-2 [12] = experiment: Bcl-2 ELISA in MCF-7 cells; format: cell-based, human; conditions: for Bcl-2 (ng/50 mg Protein): MCF-7 cells treated at IC50 concentration, control 25.13 ± 3.45, mean ± SD; for Reduction of expression level of antiapoptotic protein Bcl-2 compared to the control: MCF-7 cells, IC50 concentration
Excerpt: as §3, §4

p53 [13] = experiment: p53 ELISA in MCF-7 cells; format: cell-based, human; conditions: MCF-7 cells treated at IC50 concentration; control 4.18 ± 0.58; mean ± SD
Excerpt: as §3, §4

SMILES	zone of inhibition at 20 µg/disc (C. albicans (ATCC 10231))	zone of inhibition at 20 µg/disc (B. subtilis (ATCC 6633))	Caspase-3 Activity % (caspase-3 [1])	inhibition at 100 µg/mL [2]	inhibition at 100 µg/mL [3]	IC50 [3]	Bax (pg/50 mg Protein) (Bax [4])	p53 (pg/50 mg Protein) (p53 [5])	Caspase-3 Activity % (caspase-3 [6])	Elevation of active caspase-3 protein levels compared to the control (caspase-3 [6])	inhibition at 100 µg/mL [7]	IC50 [7]	Bax (pg/50 mg Protein) (Bax [8])	Bcl-2 (ng/50 mg Protein) (Bcl-2 [9])	Reduction of expression level of antiapoptotic protein Bcl-2 compared to the control (Bcl-2 [9])	zone of inhibition at 20 µg/disc [10]	zone of inhibition at 20 µg/disc [11]	Bcl-2 (ng/50 mg Protein) (Bcl-2 [12])	p53 (Pg/50 mg Protein) (p53 [13])	Reduction of expression level of antiapoptotic protein Bcl-2 compared to the control (Bcl-2 [12])
COc1cc2occc2c(OC)c1C1=NNC2(C1)C(=O)Nc1ccccc12 (centres unmarked) [Compound 11b, 5’-(4,6-Dimethoxy-benzofuran-5-yl)-2’,4’-dihydrospiro(indoline-3,3’-pyrazol)-2-one]	18 mm	12 mm	14.04 ± 0.54%	10.1%	94.9%	16.4 µg/mL (≈ 45.1 µM)	119.14 ± 1.65 pg/50 mg Protein	3.25 ± 0.15 pg/50 mg Protein	16.19 ± 0.79%	~ 1.6 folds	92.3%	19.4 µg/mL (≈ 53.4 µM)	109.35 ± 4.05 pg/50 mg Protein	7.25 ± 1.45 ng/50 mg Protein	~76%	18 mm	12 mm	16.18 ± 0.78 ng/50 mg Protein	5.85 ± 0.75 Pg/50 mg Protein	–
COc1c(C2=NNC3(C2)C(=O)Nc2ccccc23)c(OC)c2ccoc2c1OC (centres unmarked) [Compound 12b, 5’-(4,6,7-Trimethoxy-benzofuran-5-yl)-2’,4’-dihydrospiro(indoline-3,3’-pyrazol)-2-one]	10 mm	18 mm	33.12 ± 1.37%	5%	95.1%	7.9 µg/mL (≈ 20.1 µM)	191.07 ± 1.95 pg/50 mg Protein	48.07 ± 1.94 pg/50 mg Protein	47.25 ± 1.89%	~4.6 folds	97.4%	16.7 µg/mL (≈ 42.5 µM)	167.07 ± 4.83 pg/50 mg Protein	18.87 ± 1.84 ng/50 mg Protein	–	10 mm	24 mm	12.87 ± 1.84 ng/50 mg Protein	29.58 ± 2.53 Pg/50 mg Protein	~51%
COc1c(C2=NNC3(C2)C(=O)Nc2ccccc23)c(O)cc2occc12 (centres unmarked) [Compound 11a, 5’-(6-Hydroxy-4-methoxy-benzofuran-5-yl)-2’,4’-dihydrospiro(indoline-3,3’-pyrazol)-2-one]	20 mm	12 mm	19.12 ± 0.89%	6.2%	96.2%	5.7 µg/mL (≈ 16.3 µM)	159.26 ± 0.96 pg/50 mg Protein	16.2 ± 0.56 pg/50 mg Protein	16.67 ± 0.67%	~ 1.6 folds	94.3%	21.1 µg/mL (≈ 60.4 µM)	122.34 ± 3.45 pg/50 mg Protein	8.2 ± 1.26 ng/50 mg Protein	~ 66%	16 mm	8 mm	12.3 ± 2.26 ng/50 mg Protein	14.45 ± 0.82 Pg/50 mg Protein	~ 50%
COc1c(C2=NNC3(C2)C(=O)Nc2ccccc23)c(O)c(OC)c2occc12 (centres unmarked) [Compound 12a, 5’-(6-Hydroxy-4,7-dimethoxy-benzofuran-5-yl)-2’,4’-dihydrospiro(indoline-3,3’-pyrazol)-2-one]	12 mm	16 mm	17.43 ± 0.58%	9.1%	96.7%	5.8 µg/mL (≈ 15.3 µM)	124.56 ± 0.95 pg/50 mg Protein	23.11 ± 1.22 pg/50 mg Protein	14.18 ± 0.74%	~1.4 folds	93.6%	20.2 µg/mL (≈ 53.2 µM)	113.09 ± 1.98 pg/50 mg Protein	21.13 ± 1.45 ng/50 mg Protein	–	10 mm	18 mm	13.09 ± 2.27 ng/50 mg Protein	13.31 ± 1.08 Pg/50 mg Protein	~52%
